Experimental data from patent US20260305620A1, “NOVEL INSECTICIDAL MIXTURES FOR CONTROLLING AND PROTECTING CROPS” (ADAMA MAKHTESHIM LTD., priority 2023, published 2026).
Read-outs that look alike come from different tables or passages of the source.

Tested on: Aphis gossypii
Experiment: Mortality of Aphis gossypii adults + progeny on sprayed pepper leaf disks; synergy/antagonism of garlic extract mixtures by Colby's formula
Assay type: in vivo, Aphis gossypii (cotton aphid)
Conditions: for mortality at 0.2 ppm: 0.2 ppm ai; for mortality at 0.1 ppm: 0.1 ppm ai; for mortality at 0.8 ppm: read-out: Mortality Observed, alone, 0.8 ppm ai; for mortality at 5 ppm: read-out: Mortality Observed, alone, 5 ppm ai
Description: Evaluating the synergistic or antagonistic effects of garlic extract and other insecticides on Aphis gossypii in pepper crop.
Pepper plants of Makko F1 cv, obtained from seeds, were grown at totally controlled conditions in a growing chamber. Healthy and untreated Pepper plants were used at least two months after seeding to get leaf disks suitable to be exposed to Aphis gossypii adults.
The aphids' adults were obtained from mass rearing; aphids were reared on cucumber and zucchini plants under controlled environmental conditions.
Suitable leaves were collected from pepper plants. Leaf disks were prepared together with arenas containing a layer of water agar on the base. 8 leaf disks per treatment were obtained from the collected leaves and 20 adults/arena were inoculated.
Each arena was sprayed, using an electric low pressure hand sprayer, with the corresponding insecticide mixture. Tween 80 surfactant, at the rate of 0.05% was added in each treatment mixture.
The untreated check was sprayed with distilled water together with Tween 80 surfactant at a dose of 0.05%.
The experimental arenas were kept in a growth chamber under controlled climatic conditions: 21° C. (±0.5), 60% RH and 16:8 light:dark photoperiod regime. The assessment of mortality (as % of died adults+progeny) was performed according to the characteristics of each Active Ingredient.
Garlic extract a) and the additional pesticide b) were priorly calibrated to obtain the Dose Response Curve and the Lethal Dose (ppm) values; according to the calibrations the mixing protocols were obtained at the proper mixing ratios.
All the statistical procedures [Student-Newman-Keuls (SNK), Dose response analysis (Probit, confidence level 95%) Anova and other calculation analysis] were performed using the ARM 2020.0 software.
The evaluation of Synergy or Antagonism of the two active ingredients was performed by using the Colby's formula, above described: […]
in which E represents the expected percentage of insecticidal control for the combination of the two insecticides at defined doses, A is the percentage of insecticidal control observed by the compound (I) at a defined dose (for example, a), B is the percentage of insecticidal control observed by the compound (II) at a defined dose (for example, b). When the ratio between the observed percentage of insecticidal control for the combination of the two insecticides at defined doses and the expected percentage of insecticidal control for the combination of the two insecticides at defined doses is greater than 1.15, the effect is synergistic.

[1] = Aphis gossypii, foliar, alone, read-out: Mortality Observed
[2] = Aphis gossypii, foliar, read-out: Mortality Observed, alone, 1 ppm ai
[3] = Aphis gossypii, foliar, alone, 1 ppm ai, read-out: Mortality Observed
[4] = Aphis gossypii, foliar, alone, 2 ppm ai, read-out: Mortality Observed

## CC1(C)[C@H](C(=O)O[C@H](C#N)c2cccc(Oc3ccccc3)c2)[C@@H]1/C=C(\Cl)C(F)(F)F (racemic) [Lambda cyhalothrin, lambda-cyhalothrin]
[1]
  mortality at 0.2 ppm: 32.1%
Aphis gossypii, foliar, alone, 0.4 ppm ai, read-out: Mortality Observed
  mortality at 0.4 ppm: 37.6%

## C/C(=N\C#N)N(C)Cc1ccc(Cl)nc1 [Acetamiprid, acetamiprid]
Aphis gossypii, foliar, alone, 0.01 ppm ai, read-out: Mortality Observed
  mortality at 0.01 ppm: 48.9%
Aphis gossypii, foliar, alone, 0.05 ppm ai, read-out: Mortality Observed
  mortality at 0.05 ppm: 25%
[1]
  mortality at 0.1 ppm: 48.9%

## C[C@]1(COC(=O)C2CC2)[C@@H]2C[C@H](O)[C@@]3(C)Oc4cc(-c5cccnc5)oc(=O)c4[C@H](O)[C@@H]3[C@@]2(C)CC[C@@H]1OC(=O)C1CC1 [Afidopyropen, afidopyropen]
Aphis gossypii, foliar, read-out: Mortality Observed, alone, 0.02 ppm ai
  mortality at 0.02 ppm: 25.3%
[2]
  mortality at 1 ppm: 37.3%
Aphis gossypii, foliar, read-out: Mortality Observed, alone, 2 ppm ai
  mortality at 2 ppm: 49.4%

## C/C=C(\C)C(=O)O[C@H]1C[C@@H](OC(C)=O)[C@@]2(C(=O)OC)CO[C@H]3[C@@H](O)[C@@](C)([C@]45O[C@@]4(C)[C@H]4C[C@@H]5O[C@@H]5OC=C[C@@]54O)[C@H]4[C@]1(CO[C@]4(O)C(=O)OC)[C@@H]32 [Azadirachtin, azadirachtin]
[3]
  mortality at 1 ppm: 22.7%
[4]
  mortality at 2 ppm: 28.9%

## FC(F)(F)c1ccc(COc2ncncc2C2OCCCO2)cc1 [Benzpyrimoxan, benzpyrimoxan]
Aphis gossypii, foliar
  mortality at 0.8 ppm: 8.2%
  mortality at 5 ppm: 42%

## CC(C)c1cc(Oc2ccccc2)cc(C(C)C)c1NC(=S)NC(C)(C)C [Diafenthiuron, diafenthiuron]
[2]
  mortality at 1 ppm: 22.7%
Aphis gossypii, foliar
  mortality at 5 ppm: 26%
alone, 5 ppm ai
  Mortality Observed: 26.22%

## N#Cc1nn(-c2c(Cl)cc(C(F)(F)F)cc2Cl)c(N)c1[S+]([O-])C(F)(F)F (stereo not shown) [Fipronil, fipronil]
[1]
  mortality at 0.1 ppm: 35%
Aphis gossypii, foliar, alone, 0.5 ppm ai, read-out: Mortality Observed
  mortality at 0.5 ppm: 43.2%

## N#CCNC(=O)c1cnccc1C(F)(F)F [Flonicamid, flonicamid]
alone, 1 ppm ai
  Mortality Observed: 31.4%
alone, 2 ppm ai
  Mortality Observed: 27.2%

## CC(=O)N1C(=O)N(NCc2cccnc2)Cc2cc(C(F)(C(F)(F)F)C(F)(F)F)ccc21 [Pyrifluquinazon, pyrifluquinazon]
Aphis gossypii, foliar, read-out: Mortality Observed, alone, 0.08 ppm ai
  mortality at 0.08 ppm: 24.9%
Aphis gossypii, foliar, read-out: Mortality Observed, alone, 0.5 ppm ai
  mortality at 0.5 ppm: 42.7%
Aphis gossypii, foliar
  mortality at 0.8 ppm: 47.6%

## CCOC(=O)OC1=C(c2cc(C)ccc2C)C(=O)N[C@]12CC[C@@H](OC)CC2 [Spirotetramat, spirotetramat]
[3]
  mortality at 1 ppm: 23.5%
[4]
  mortality at 2 ppm: 44.4%

## CC(C)[C@@H](Nc1ccc(C(F)(F)F)cc1Cl)C(=O)OC(C#N)c1cccc(Oc2ccccc2)c1 (stereo partly shown) [Tau fluvalinate, tau-fluvalinate]
[1]
  mortality at 0.1 ppm: 28.1%
  mortality at 0.2 ppm: 47.9%

## CCc1nn(C)c(C(=O)NCc2ccc(Oc3ccc(C)cc3)cc2)c1Cl [Tolfenpyrad, tolfenpyrad]
[1]
  mortality at 0.2 ppm: 15.9%
[3]
  mortality at 1 ppm: 39.3%
